In the supplement of paper PMC10307832:

Legend:
Assay in all cases: relative viability (nuclei count vs DMSO), 5 days (fraction); higher = more cells survive
Seliciclib + Lapatinib = compound: CC[C@H](CO)Nc1nc(NCc2ccccc2)c2ncn(C(C)C)c2n1 [Seliciclib] + CS(=O)(=O)CCNCc1ccc(-c2ccc3ncnc(Nc4ccc(OCc5cccc(F)c5)c(Cl)c4)c3c2)o1 [Lapatinib] (partner 2 µM)
Procedure, shortened: (§1)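 Relative viability divides the nuclei count in treated wells by that in vehicle wells. Lung cancer cell lines were seeded in 1536-well plates, dosed by pin tool the next day, and fixed and stained after 5 days in one step with final 0.05% Triton X-100, 1% formaldehyde and 1 ug/ml Hoechst. Dosing was a single drug or a fixed anchor-drug dose plus five library-drug doses (not always all listed) in √10 steps, and values are medians of duplicate plates imaged at 4×.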

Seliciclib + OSI-027 = compound: CC[C@H](CO)Nc1nc(NCc2ccccc2)c2ncn(C(C)C)c2n1 [Seliciclib] + COc1cccc2cc(-c3nc([C@H]4CC[C@H](C(=O)O)CC4)n4ncnc(N)c34)[nH]c12 [OSI-027] (partner 0.5 µM)
Procedure, shortened: as §1

Seliciclib + Linsitinib = compound: CC[C@H](CO)Nc1nc(NCc2ccccc2)c2ncn(C(C)C)c2n1 [Seliciclib] + C[C@]1(O)C[C@@H](c2nc(-c3ccc4ccc(-c5ccccc5)nc4c3)c3c(N)nccn32)C1 [Linsitinib] (partner 1 µM)
Procedure, shortened: as §1

Seliciclib + Luminespib = compound: CC[C@H](CO)Nc1nc(NCc2ccccc2)c2ncn(C(C)C)c2n1 [Seliciclib] + CCNC(=O)c1noc(-c2cc(C(C)C)c(O)cc2O)c1-c1ccc(CN2CCOCC2)cc1 [Luminespib] (partner 0.01 µM)
Procedure, shortened: as §1

Cell Line | relative viability (Seliciclib + Lapatinib; first compound 0.08 µM) | relative viability (Seliciclib + Lapatinib; first compound 0.253 µM) | relative viability (Seliciclib + Lapatinib; first compound 0.8 µM) | relative viability (Seliciclib + Lapatinib; first compound 2.53 µM) | relative viability (Seliciclib + Lapatinib; first compound 8 µM) | relative viability (Seliciclib + OSI-027; first compound 0.08 µM) | relative viability (Seliciclib + OSI-027; first compound 0.253 µM) | relative viability (Seliciclib + OSI-027; first compound 0.8 µM) | relative viability (Seliciclib + OSI-027; first compound 2.53 µM) | relative viability (Seliciclib + OSI-027; first compound 8 µM) | relative viability (Seliciclib + Linsitinib; first compound 0.08 µM) | relative viability (Seliciclib + Linsitinib; first compound 0.253 µM) | relative viability (Seliciclib + Linsitinib; first compound 0.8 µM) | relative viability (Seliciclib + Linsitinib; first compound 2.53 µM) | relative viability (Seliciclib + Linsitinib; first compound 8 µM) | relative viability (Seliciclib + Luminespib; first compound 0.08 µM) | relative viability (Seliciclib + Luminespib; first compound 0.253 µM) | relative viability (Seliciclib + Luminespib; first compound 0.8 µM) | relative viability (Seliciclib + Luminespib; first compound 2.53 µM) | relative viability (Seliciclib + Luminespib; first compound 8 µM)
NCI-H727 | 0.936 | 0.75 | 0.556 | 0.518 | 0.634 | 0.792 | 0.687 | 0.465 | 0.338 | 0.636 | 0.306 | 0.245 | 0.222 | 0.226 | 0.251 | 0.338 | 0.447 | 0.372 | 0.321 | 0.271
NCI-H650 | 0.953 | 1.12 | 1.1 | – | 0.765 | 0.539 | 0.497 | 0.651 | 0.313 | 0.495 | 0.833 | 0.925 | 1.17 | – | 0.897 | 0.807 | 0.757 | 0.921 | 0.727 | 0.709
NCI-H520 | 0.858 | 0.727 | 0.831 | 0.933 | 0.674 | 0.275 | – | 0.324 | 0.277 | 0.228 | 0.954 | 0.762 | 0.924 | 0.949 | 0.935 | 0.234 | – | 0.175 | 0.315 | 0.205
EBC-1 | 0.25 | 0.225 | 0.251 | 0.23 | 0.227 | – | – | – | – | – | 0.911 | 0.836 | 0.942 | 0.88 | 0.794 | – | – | – | – | –
NCI-H661 | 0.522 | 0.463 | 0.473 | 0.452 | 0.391 | 0.757 | 0.741 | 0.687 | 0.65 | 0.637 | 0.545 | 0.542 | 0.543 | 0.518 | 0.451 | 0.9 | 1.07 | 0.853 | 0.809 | 0.756
NCI-H1299 | 0.953 | 1.06 | 0.997 | 0.962 | 0.948 | – | – | – | – | – | 0.981 | 1.14 | 1.09 | 0.956 | 1 | – | – | – | – | –
LK-2 | 0.946 | 0.91 | 0.871 | 0.747 | 0.452 | 0.225 | 0.203 | 0.191 | 0.175 | 0.194 | 0.74 | 0.462 | 0.523 | 0.676 | 0.274 | 0.186 | 0.236 | 0.164 | 0.174 | 0.253
NCI-H1993 | 0.845 | 0.848 | 0.838 | 0.773 | 0.797 | 0.574 | 0.529 | 0.521 | 0.556 | 0.518 | 0.746 | 0.749 | 0.768 | 0.724 | 0.713 | 0.879 | 0.733 | 0.875 | 0.674 | 0.612
NCI-H838 | 0.967 | 0.92 | 0.926 | 0.868 | 0.362 | 0.425 | 0.44 | 0.325 | 0.247 | 0.292 | 0.933 | 0.864 | 0.943 | 1.07 | 0.966 | 0.356 | 0.27 | 0.332 | 0.28 | 0.344
NCI-H1437 | 0.824 | 0.949 | 0.882 | 0.777 | 0.618 | 0.844 | 0.877 | 0.99 | 0.52 | 0.787 | 1.02 | 1.06 | 0.974 | 1.16 | 0.786 | 0.999 | 1.2 | 1.05 | 1.05 | 0.809
SW 900 | – | – | – | – | – | 0.59 | 0.396 | 0.62 | 0.45 | 0.397 | – | – | – | – | – | 0.148 | 0.147 | 0.14 | 0.17 | 0.168
LCLC-103H | – | – | – | – | – | 0.452 | 0.47 | 0.456 | 0.319 | 0.487 | 1.17 | 0.973 | 1.02 | 1.02 | 0.849 | 1.02 | 0.958 | 0.763 | 0.993 | 0.774
NCI-H441 | – | – | – | – | – | 0.794 | 0.582 | 0.645 | 0.335 | 0.423 | 0.699 | 0.545 | 0.45 | 0.572 | 0.442 | 0.319 | 0.296 | 0.341 | 0.299 | 0.299
NCI-H1650 | 0.769 | 0.889 | 0.725 | 0.621 | 0.347 | 0.842 | 0.518 | 0.641 | 0.487 | 0.443 | – | – | – | – | – | 0.195 | 0.185 | 0.216 | 0.199 | 0.193
IA-LM | 0.537 | 1.07 | 0.719 | 0.977 | 0.82 | – | – | – | – | – | 0.644 | 0.793 | 0.602 | 0.709 | 0.611 | – | – | – | – | –
NCI-H2170 | 0.272 | 0.274 | 0.269 | 0.259 | 0.268 | 0.754 | 0.639 | 0.724 | 0.691 | 0.708 | – | – | – | – | – | 0.738 | 0.552 | 0.729 | 1.04 | 0.714
HCC-366 | 1.01 | 1.15 | 0.987 | 1.22 | 0.863 | 0.978 | 0.43 | 0.825 | 0.513 | 0.625 | 0.538 | 0.448 | 0.557 | 0.836 | 0.36 | – | – | – | – | –
NCI-H2342 | – | – | – | – | – | 0.565 | 0.657 | 0.581 | 0.505 | 0.574 | – | – | – | – | – | 0.658 | 0.525 | 0.662 | 0.699 | 0.648
NCI-H522 | – | – | – | – | – | 0.818 | 0.63 | 0.685 | 0.623 | 0.644 | – | – | – | – | – | 1.05 | 0.954 | 1.15 | 1.12 | 0.938
HCC-78 | 0.931 | 1.39 | 0.881 | 0.559 | 0.479 | 0.411 | 0.426 | 0.358 | 0.34 | 0.326 | 0.478 | 0.558 | 0.49 | 0.596 | 0.404 | – | – | – | – | –
